Laboratory results: PubChem BioAssay (NCI)
“And” between values parts separate entries of the source, which are not always exact repeats. Equal entries are not always repeated.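 Cultured in 96-well plates, cells were exposed to test compound for 48 hours across five concentrations. Here, GI50 denotes the concentration required for 50% inhibition of growth. TGI: concentration producing complete growth inhibition.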

Key:
Assay in all cases: NCI anticancer screen, dose series, 48 h
[1] = system: DU-145 prostate
[2] = system: EKVX NSCLC
[3] = system: HS 578T breast
[4] = system: HCT-116 colon
[5] = system: A549 NSCLC
[6] = system: UACC-62 melanoma
[7] = system: HOP-62 NSCLC
[8] = system: TK-10 renal
[9] = system: T-47D breast
[10] = system: SNB-75 CNS

O=S(=O)(NCCCNc1nccc(-c2c(-c3ccc(O)cc3)nc3sccn23)n1)c1ccc(F)cc1
GI50 [1]: 2.52 µM
TGI [1]: 9.56 µM
GI50 [2]: 2.91 µM
TGI [2]: 9.02 µM
GI50 [3]: 2.8 µM
TGI [3]: 6.99 µM
GI50 [4]: 1.25 µM
TGI [4]: 4.77 µM
GI50 [5]: 2.64 µM
TGI [5]: 20.3 µM
GI50 [6]: 0.0245 µM
TGI [6]: 1.33 µM
GI50 [7]: 3.67 µM
TGI [7]: 14.9 µM
GI50 [8]: 4.48 µM
TGI [8]: 32.2 µM
GI50 [9]: 1.39 µM
TGI [9]: 3.55 µM
GI50 [10]: 1.03 µM
TGI [10]: 7.91 µM

Nc1nccc(-c2c(-c3ccc(F)cc3)ncn2C2CCNCC2)n1
GI50 [1]: 7.77 µM and 3.96 µM
TGI [1]: > 25 µM
GI50 [2]: > 25 µM and 5.01 µM
TGI [2]: > 25 µM and 24.8 µM
GI50 [3]: > 18.3 µM and 5.54 µM
TGI [3]: > 25 µM
GI50 [4]: 3.52 µM and 1.47 µM
TGI [4]: > 25 µM
GI50 [5]: 1.97 µM and 1.66 µM
TGI [5]: > 25 µM
GI50 [6]: 11.1 µM and 4.61 µM
TGI [6]: > 25 µM
GI50 [7]: 5.29 µM and 3.85 µM
TGI [7]: > 25 µM
GI50 [8]: 7.66 µM and 2.79 µM
TGI [8]: > 25 µM and 14.8 µM
GI50 [9]: 1.55 µM and 4.2 µM
TGI [9]: > 25 µM
GI50 [10]: 2.91 µM and 1.17 µM
TGI [10]: > 23.4 µM and 12.7 µM

COc1ccc(/C=C(/C#N)C(N)=O)c(OC)c1
TGI [1]: > 100 µM
TGI [2]: > 100 µM
TGI [3]: > 100 µM
TGI [4]: > 100 µM
TGI [5]: > 100 µM
TGI [6]: > 100 µM
TGI [7]: > 100 µM
TGI [8]: > 100 µM
TGI [9]: > 100 µM
TGI [10]: > 100 µM

CCN1C(=S)N(c2ccccc2)C2NC(=S)N(/N=C/C=C/c3ccccc3OC)C21 (centres undefined)
GI50 [1]: 0.356 µM
TGI [1]: 28.5 µM
GI50 [2]: 0.505 µM
TGI [2]: > 100 µM
GI50 [3]: 0.359 µM
TGI [3]: > 100 µM
GI50 [4]: 0.36 µM
TGI [4]: > 100 µM
GI50 [5]: 0.607 µM
TGI [5]: > 100 µM
GI50 [6]: 0.421 µM
TGI [6]: > 100 µM
GI50 [7]: 0.487 µM
TGI [7]: > 100 µM
TGI [8]: > 100 µM
GI50 [9]: > 100 µM
TGI [9]: > 100 µM
GI50 [10]: 0.211 µM
TGI [10]: 4.36 µM

c1ccc2sc(SCCSc3nc4ccccc4s3)nc2c1
TGI [1]: > 100 µM
TGI [2]: > 100 µM
TGI [3]: > 100 µM
TGI [4]: > 100 µM
TGI [5]: > 100 µM
TGI [6]: > 100 µM
TGI [7]: > 100 µM
TGI [8]: > 100 µM
TGI [9]: > 100 µM
TGI [10]: > 100 µM

Cc1cc(O)c(=O)cc2c1C[C@H]1CC(C)(C)/C=C/C[C@]3(C)Oc4cc(=O)c(O)cc(C)c4C[C@H]3C[C@H](O)[C@@]1(C)O2
GI50 [1]: < 0.01 µM
TGI [1]: > 75.9 µM
GI50 [2]: 0.0172 µM
TGI [2]: > 46.2 µM
GI50 [3]: 0.0339 µM
TGI [3]: > 100 µM
GI50 [4]: < 0.01 µM
TGI [4]: > 100 µM
GI50 [5]: < 0.01 µM
TGI [5]: 2.13 µM
GI50 [6]: 0.0296 µM
TGI [6]: 0.157 µM
GI50 [7]: 0.02 µM
TGI [7]: 0.0987 µM
GI50 [8]: 0.0211 µM
TGI [8]: 9.95 µM
GI50 [9]: < 0.01 µM
TGI [9]: 0.0949 µM
GI50 [10]: 0.0262 µM
TGI [10]: 42 µM

COc1ccc(C2CC(c3cccc(Nc4ccnc5cc(Cl)ccc45)c3)=NN2C=O)cc1 (centres undefined)
GI50 [1]: 0.978 µM
TGI [1]: > 34.9 µM
GI50 [2]: 1.19 µM
TGI [2]: > 100 µM
GI50 [3]: 0.367 µM
TGI [3]: 16.9 µM
GI50 [4]: 0.398 µM
TGI [4]: 2.56 µM
GI50 [5]: 0.527 µM
TGI [5]: 18.3 µM
GI50 [6]: 0.532 µM
TGI [6]: 54.8 µM
GI50 [7]: 0.747 µM
TGI [7]: 27.6 µM
GI50 [8]: 0.882 µM
TGI [8]: 7.86 µM
GI50 [9]: 0.604 µM
TGI [9]: > 42.8 µM
GI50 [10]: 0.244 µM
TGI [10]: 3.01 µM
